Literature values as cited in patent publication US20060264381A1, “Methods of treating obsessive compulsive disorder” (priority 2005, published 2006).

Assays:
[1] = test system: Gp1 mGluR5 on cultured hippocampal neurons
[2] = test system: cultured cortical neurons; settings: cultures prepared from Fmr1 knockout (KO) mice lacking FMRP
[3] = test system: synaptosomes prepared from the cortex of Fmr1 KO mice
[4] = test system: Drosophila mGluR, DmGluRA; settings: flies lacking dfmr1 raised with food containing drug
mGluR5 = target: T1, mGluR5 (Mus musculus, UniProt Q3UVX5); settings: slices from the Fmr1 KO mouse
T1 construct: from tissue; host or cells: brain slices from Fmr1 knockout mouse (hippocampal area CA3 by context)
T1 sequence (Q3UVX5 19-1203): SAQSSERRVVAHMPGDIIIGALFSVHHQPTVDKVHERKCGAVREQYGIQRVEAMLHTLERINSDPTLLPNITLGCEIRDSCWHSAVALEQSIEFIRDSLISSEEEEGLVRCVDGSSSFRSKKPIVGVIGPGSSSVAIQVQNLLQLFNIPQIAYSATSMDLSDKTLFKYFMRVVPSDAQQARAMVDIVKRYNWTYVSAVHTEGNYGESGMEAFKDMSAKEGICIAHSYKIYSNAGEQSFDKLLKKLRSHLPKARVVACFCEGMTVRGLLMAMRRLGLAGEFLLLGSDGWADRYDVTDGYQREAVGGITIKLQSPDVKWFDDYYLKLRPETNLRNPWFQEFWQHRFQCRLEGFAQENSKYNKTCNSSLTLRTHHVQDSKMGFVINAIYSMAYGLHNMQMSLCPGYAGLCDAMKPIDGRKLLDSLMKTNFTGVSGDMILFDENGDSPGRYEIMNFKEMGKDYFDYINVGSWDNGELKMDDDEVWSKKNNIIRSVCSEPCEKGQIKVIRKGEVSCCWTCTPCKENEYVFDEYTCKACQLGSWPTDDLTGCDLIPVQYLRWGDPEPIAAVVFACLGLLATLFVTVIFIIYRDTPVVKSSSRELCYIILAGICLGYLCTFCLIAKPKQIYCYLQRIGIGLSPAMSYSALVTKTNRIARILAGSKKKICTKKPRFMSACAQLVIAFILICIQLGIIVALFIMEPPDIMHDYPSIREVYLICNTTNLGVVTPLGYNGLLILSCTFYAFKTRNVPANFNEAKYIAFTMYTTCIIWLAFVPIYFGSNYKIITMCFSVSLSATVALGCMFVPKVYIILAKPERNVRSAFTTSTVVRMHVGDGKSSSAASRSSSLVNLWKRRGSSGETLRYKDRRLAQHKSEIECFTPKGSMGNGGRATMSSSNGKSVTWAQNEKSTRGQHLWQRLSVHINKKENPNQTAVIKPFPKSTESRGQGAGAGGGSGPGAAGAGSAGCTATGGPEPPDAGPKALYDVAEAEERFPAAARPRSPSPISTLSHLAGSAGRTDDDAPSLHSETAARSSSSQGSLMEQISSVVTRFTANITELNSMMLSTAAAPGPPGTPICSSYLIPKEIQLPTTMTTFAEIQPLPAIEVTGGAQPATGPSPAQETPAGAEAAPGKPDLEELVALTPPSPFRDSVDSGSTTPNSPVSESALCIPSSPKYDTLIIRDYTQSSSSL

Row | ictal-like activity emerging spontaneously in slices (mGluR5) | SMILES | delivery of FMRP to dendrites ([1]; cultured hippocampal neurons) | loss of AMPA receptors from synapses ([1]; cultured hippocampal neurons) | proportion of long, thin dendritic spines ([1]; prolonged treatment of hippocampal neurons) | PSD-95 levels [2] | polyribosome assembly [3] | rescue of phenotypes in mutant flies (altered courtship behavior, decreased memory in conditioned courtship assay, mushroom body structure) [4]
1 |  | N[C@@H](C(=O)O)c1cc(O)cc(O)c1 (racemic) [DHPG, (R,S)-3,5-dihydroxyphenylglycine] | triggers the delivery of FMRP to dendrites | stimulates the loss of AMPA receptors from synapses | increased the proportion of long, thin dendritic spines | fails to increase PSD-95 levels | fails to stimulate polyribosome assembly | 
2 | reversed | Cc1cccc(C#Cc2ccccc2)n1 [MPEP, 2-methyl-6-(phenylethynyl)-pyridine] |  |  |  |  |  | rescued
